Experimental data taken from patent US12194034B2, “Neutrophil exocytosis inhibitors” (IMMUNYX PHARMA LTD., priority 2021, dated 2025).

Assays:
[1] = test system: human neutrophils; settings: by inhibiting NAD(P)H; cited from earlier work
[2] = test system: human neutrophils; experiment: NETosis assay; type: cell-based; settings: PMA 50 nM; for PMA-induced NETosis (NETosis positive events over time): T1/T3 10 μM, Trifluoperazine 100 ng/ml, Incucyte, 8 hr
Method: NETosis assay: The assay was carried out as previously described (Gupta et al., “A High-Throughput Real-Time Imaging Technique To Quantify NETosis and Distinguish Mechanisms of Cell Death in Human Neutrophils.”, J Immunol. 2018; 200:869-879, herein incorporated by reference in its entirety). Briefly, human neutrophils (2×10^6 cells/mL) were incubated for 5 minutes in the dark at RT with the NUCLEAR-ID Red DNA dye to stain nuclei (Enzo Life Sciences, Inc.). Cells were washed twice and resuspended in 1 mL of RPMI media. NUCLEAR-ID Red stained-neutrophils were plated (20,000 neutrophils per 100 μL per well) in a 96-well flat microplate. Stimulation of neutrophils NETosis was performed with PMA alone (50 nM), or with PMA in the presence of T1 compound (10 μM) or T3 compound (10 μuM). Unstimulated neutrophils served as a negative control. Neutrophils stimulated with PMA in the presence of Trifluoperazine (Stelazine, 100 ng/ml) were used as positive control. A final concentration of 0.1 μM of the membrane impermeable dsDNA fluorescent Sytox® Green nucleic acid stain (Life Technologies, Inc.) was added to the plated cells concomitantly with the stimuli. Neutrophils were imaged within 10 minutes of plating using phase contrast, red (800 ms exposure) and green (400 ms exposure) channels in the IncuCyte ZOOM™ platform (Essen BioScience, Inc.), located within a cell incubator at 37° C. with 5% CO2. Four image sets from distinct regions per well using a 20x dry objective lens were taken every 20-30 minutes, for 8 hr. For red channel, filters were applied to exclude objects below radius of 10 μm, fluorescence threshold of 0.5 red corrected units, and area of 15 μm^2. The filters applied the green channel excluded objects below the radius of 10 μm, fluorescence threshold of 1.00 green corrected units, and area of 100 μm^2. The green object count divided by the red object count represents the percentage of cells going through NETosis of total neutrophils. Liposome preparation: 2.5% DSPE-PEG3400-Maleimide liposomes were prepared in 250 mM ammonium sulfate. Liposomes were prepared at a molar ration of 56.5:41: 2.5:0.09 of HSPC: Cholesterol: DSPE-PEG-Mal: DilC18 (5)-DS.
Besides degranulation, neutrophils can kill pathogens extracellularly by releasing neutrophil extracellular traps (NETs), a process known as NETosis. Examination of NETosis induced by PMA was monitored by an Incucyte live-cell analysis system (FIG. 4). PMA treatment produced a steady increase in NETosis positive events starting at 2 hours after treatment. […] An increase was only observed after 4 hours when T1 was used and after 5 hours when T3 was used.

[3] = test system: human neutrophils; settings: cited from earlier work
[4] = test system: DSS colitis model mice; experiment: DSS colitis mouse model; type: in vivo, C57BL/6 mice; settings: 3% DSS 5 days; 2.5 mg/kg of T3 on days 5, 7 and 9
Method: Next, the ability of T3 administration, to treat colitis, a disease caused at least in part by neutrophil cytotoxicity, was tested in a mouse model. Colitis was induced in C57BL/6 mice by administration of 3% dextran sulfate sodium (DSS) for 5 consecutive days in drinking water. 2.5 mg/kg of T3, in its three formulations, was administered on days 5, 7 and 9. Colitis induction by DSS caused a pronounced shortening of the mouse colon.
Lower doses of TENN-T3 were also tested. The targeted liposomes were administered at days 5 and 7 and mice were sacrificed on day 10 and colon length was measured.

[5] = test system: peripheral blood neutrophils; experiment: LPS-induced inflammation mouse model, surface CD11b of peripheral blood neutrophils; type: in vivo, Balb/C mice; settings: LPS 1 mg/kg intraperitoneal; T3 (Z isomer) 3 mg/kg IV after 1 hour; blood after 3 hours
Method: The in-vivo effect of the three compositions of T3 was examined in a mouse model of inflammation. Balb/C mice were intraperitoneal injected with 1 mg/kg of LPS to induce inflammation and neutrophil toxicity. After 1 hour, T3—free molecule, T3 within a liposome, and T3 within a targeted liposome (TENN-T3) were IV administered at a final concentration of 3 mg/kg body weight. After 3 hours 0.5 mL of blood was drawn from each mouse and degranulation of peripheral blood neutrophils was evaluated by flow cytometry analysis of surface CD11b levels (neutrophils were identified by Ly6G staining). […] Overall, it is clear that T3 inhibits neutrophil activation in vivo and that targeting greatly enhances the effect.

[6] = test system: human neutrophils; settings: cited from earlier work; remark: listed apart in the source

SMILES: c1ccc2c(c1)[I+]c1ccccc1-2 [DPI, Diphenylenciodonium]
- ROS production (known effect) [1]: nearly completely abolish ROS production

SMILES: CN1CCN(CCCN2c3ccccc3Sc3ccc(C(F)(F)F)cc32)CC1 [Trifluoperazine, reference compound]
- PMA-induced NETosis (NETosis positive events over time) [2]: steady reduction
- inhibition of NETosis (known) [3]: known inhibitor of NETosis

SMILES: CN1CCC(N2CCC(C(=O)/C(=C/c3cccc([N+](=O)[O-])c3)n3cncn3)CC2)CC1 [T3]
- colon length [4]: comparable to a negative control
- NETosis events compared with control ([2]; compound 10 μM): very similar to control
- time after which an increase in NETosis was observed ([2]; compound 10 μM): > 5 h
- PMA-induced NETosis (NETosis positive events over time) [2]: initially inhibited an increase in NETosis completely
- reduction in degranulation (surface CD11b of blood neutrophils) [5]: moderate but not statistically significant reduction

SMILES: CCN(CC)CCC(C)(C)C(=O)/C(=C/c1cccc([N+](=O)[O-])c1)n1cncn1 [T1]
- time after which an increase in NETosis was observed ([2]; compound 10 μM): > 4 h
- PMA-induced NETosis (NETosis positive events over time) [2]: initially inhibited an increase in NETosis completely

SMILES: CC(C)(C)C(=O)/C(=C/c1cccc([N+](=O)[O-])c1)n1cncn1 [Nexinhib-20]
- inhibition of degranulation (known) [6]: known to inhibit degranulation
